Like-named read-outs stand apart in the source and are kept apart here.
What was measured:
progesterone receptor = progesterone receptor (Homo sapiens (Human), UniProt P06401); conditions: for Progesterone receptor (PR) Competition factor: CF of 1 = affinity of progesterone, CF >1 lower affinity; for CF PR/CF MR: ratio of the competition factors CF(PR) and CF(MR); for IC50: read-out: Progesterone receptor (PR) IC50, receptor binding, 3H-progesterone displacement
Experimental: Progesterone Receptor Binding Test:
Using cytosol from progesterone receptor-expressing insect cells (Hi5), competitive binding to the progesterone receptor was determined from the ability to displace ^3H-progesterone as reference substance from the receptor.

androgen receptor [1] = biological target: T1, androgen receptor (Homo sapiens (Human), UniProt P10275); assay: cell-based; conditions: for Androgen receptor Agonism efficacy / Androgen receptor Antagonism efficacy: in-vitro transactivation, PC3 cells; for Androgen receptor Antagonism efficacy: 0.05 nM R1881
T1 sequence (P10275 whole entry, species assumed): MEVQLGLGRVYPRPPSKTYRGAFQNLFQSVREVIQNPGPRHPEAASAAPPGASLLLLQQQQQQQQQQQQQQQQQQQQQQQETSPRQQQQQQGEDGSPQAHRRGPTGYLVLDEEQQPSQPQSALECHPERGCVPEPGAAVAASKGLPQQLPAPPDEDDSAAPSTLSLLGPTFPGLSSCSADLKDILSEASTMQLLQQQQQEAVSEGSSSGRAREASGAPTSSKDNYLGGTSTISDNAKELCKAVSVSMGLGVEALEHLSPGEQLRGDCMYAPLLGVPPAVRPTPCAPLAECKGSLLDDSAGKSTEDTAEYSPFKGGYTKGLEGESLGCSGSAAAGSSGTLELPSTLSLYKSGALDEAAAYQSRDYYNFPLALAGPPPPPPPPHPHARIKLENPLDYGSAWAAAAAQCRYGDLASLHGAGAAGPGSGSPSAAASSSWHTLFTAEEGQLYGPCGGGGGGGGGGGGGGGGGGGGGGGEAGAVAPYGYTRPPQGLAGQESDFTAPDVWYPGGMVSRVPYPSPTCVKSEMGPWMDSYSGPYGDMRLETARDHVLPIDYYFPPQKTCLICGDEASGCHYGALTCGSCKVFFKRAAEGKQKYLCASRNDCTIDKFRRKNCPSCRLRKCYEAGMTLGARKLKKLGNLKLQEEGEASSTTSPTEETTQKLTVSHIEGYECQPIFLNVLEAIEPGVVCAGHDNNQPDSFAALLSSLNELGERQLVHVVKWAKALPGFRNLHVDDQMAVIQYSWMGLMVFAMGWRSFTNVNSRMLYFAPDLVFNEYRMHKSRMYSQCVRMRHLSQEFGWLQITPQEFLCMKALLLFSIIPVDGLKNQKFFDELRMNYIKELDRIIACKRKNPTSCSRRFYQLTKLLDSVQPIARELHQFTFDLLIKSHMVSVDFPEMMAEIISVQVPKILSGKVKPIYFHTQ
Experimental: 6. Determination of Androgenic/Antiandrogenic Action by Means of Transactivation Tests:
The androgenic/antiandrogenic action of the test substances was determined as for the transactivation tests described above.
The following modifications were made: In this case reporter cell lines were used (PC3 cells) that express the androgen receptor, and a reporter construct that contains luciferase under the control of a steroid hormone-responsive promoter.
For determination of the antiandrogenic efficacy, 0.05 nM R1881 was added to the cells, in order to achieve almost maximum stimulation of the reporter gene.

androgen receptor [2] = biological target: T1, androgen receptor; conditions: for IC50: read-out: Androgen receptor IC50, receptor binding, 3H-testosterone displacement; for Androgen receptor Competition factor: reference substance 3H-testosterone
Experimental: 3. Androgen Receptor Binding Test:
The test was carried out as in 1., with the following modifications: cytosol from androgen receptor-expressing insect cells (Hi5) was used, and the reference substance was ^3H-testosterone.

[3] = biological target: fusion protein from the PR-ligand-binding domain and a Gal4-transactivation domain (Homo sapiens (Human), UniProt P06401); assay: cell-based; conditions: for Progesterone receptor Agonism efficacy / Progesterone receptor Agonism EC50: in-vitro transactivation, CHO K1 reporter cells; for Progesterone receptor Agonism EC50: 16 hours
fusion protein from the PR-ligand-binding domain and a Gal4-transactivation domain, sequence (P06401 679-913): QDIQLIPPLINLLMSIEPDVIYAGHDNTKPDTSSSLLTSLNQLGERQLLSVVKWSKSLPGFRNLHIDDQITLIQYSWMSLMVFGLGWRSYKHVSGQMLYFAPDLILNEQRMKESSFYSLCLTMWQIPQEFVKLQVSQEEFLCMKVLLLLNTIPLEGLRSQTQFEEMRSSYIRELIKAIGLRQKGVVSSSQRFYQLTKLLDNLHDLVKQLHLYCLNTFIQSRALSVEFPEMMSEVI
Experimental: 4. Determination of Progestational Action by Means of Transactivation Tests:
The test compounds were added eight hours later, and the cells were incubated with the compounds for 16 hours. The tests were carried out in triplicate. At the end of incubation the medium containing the effector was removed and replaced with lysis buffer. After luciferase assay substrate (Promega, #E1501) had been added, the 96-well plates were then put in a microplate luminometer (Pherastar, BMG Labtech), and the luminescence was measured. The IC50 values were evaluated using software for calculating dose-effect relations.

[4] = biological target: T2, mineralocorticoid receptor (Homo sapiens (Human), UniProt P08235); assay: Antimineralocorticoid action by transactivation test (MDCK luciferase reporter cells); assay type: cell-based; conditions: in-vitro transactivation, 1 nM aldosterone; for IC50: read-out: Mineralocorticoid receptor Antagonism IC50
T2 sequence (P08235 whole entry): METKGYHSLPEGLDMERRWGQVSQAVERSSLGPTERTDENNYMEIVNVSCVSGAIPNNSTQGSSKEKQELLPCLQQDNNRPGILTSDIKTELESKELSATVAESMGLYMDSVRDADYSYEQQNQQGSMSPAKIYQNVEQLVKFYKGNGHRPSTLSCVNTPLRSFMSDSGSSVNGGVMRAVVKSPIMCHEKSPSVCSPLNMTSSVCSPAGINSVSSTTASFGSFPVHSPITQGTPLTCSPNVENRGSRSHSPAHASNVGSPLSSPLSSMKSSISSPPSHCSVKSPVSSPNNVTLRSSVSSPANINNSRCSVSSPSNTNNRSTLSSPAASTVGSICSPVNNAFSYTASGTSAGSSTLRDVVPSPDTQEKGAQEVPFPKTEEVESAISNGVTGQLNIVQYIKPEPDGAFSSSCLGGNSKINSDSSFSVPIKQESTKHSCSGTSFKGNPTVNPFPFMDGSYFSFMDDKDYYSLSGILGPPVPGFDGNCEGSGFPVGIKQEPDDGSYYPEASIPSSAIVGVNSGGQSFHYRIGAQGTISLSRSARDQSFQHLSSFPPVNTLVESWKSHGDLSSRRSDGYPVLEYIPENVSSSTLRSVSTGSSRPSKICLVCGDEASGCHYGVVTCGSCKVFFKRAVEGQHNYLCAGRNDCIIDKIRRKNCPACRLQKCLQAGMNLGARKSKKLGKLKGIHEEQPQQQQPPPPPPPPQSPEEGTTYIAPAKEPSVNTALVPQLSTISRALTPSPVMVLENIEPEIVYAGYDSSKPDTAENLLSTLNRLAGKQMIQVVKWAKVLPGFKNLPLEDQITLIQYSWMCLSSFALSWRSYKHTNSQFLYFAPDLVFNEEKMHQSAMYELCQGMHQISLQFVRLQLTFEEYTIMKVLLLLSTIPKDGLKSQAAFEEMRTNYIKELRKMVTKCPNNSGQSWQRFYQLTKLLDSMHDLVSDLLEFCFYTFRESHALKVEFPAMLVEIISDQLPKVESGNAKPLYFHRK
Experimental: 5. Determination of Antimineralocorticoid Action by Means of Transactivation Tests:
The antimineralocorticoid activity of the test substances was determined as for the transactivation tests described above.
The following modifications were undertaken: In this case reporter cell lines were used (MDCK cells) that express the human mineralocorticoid receptor, and transiently contain a reporter construct that contains luciferase under the control of a steroid hormone-responsive promoter.
For determination of antimineralocorticoid efficacy, 1 nM aldosterone (SIGMA A-6628, Lot 22H4033) was added to the cells, to achieve almost maximum stimulation of the reporter gene. Inhibition of the effect indicated a mineralocorticoid-antagonistic action of the substances (Table 2; for comparison, corresponding values for drospirenone (A)).

[5] = biological target: T2, mineralocorticoid receptor; assay: Mineralocorticoid receptor binding test (displacement of 3H-aldosterone, cytosol from Hi5 insect cells); conditions: reference substance 3H-aldosterone
Experimental: 2. Mineralocorticoid Receptor Binding Test:
The test was carried out as in 1., with the following modifications: cytosol from mineralocorticoid receptor-expressing insect cells (Hi5) was used, and the reference substance was ^3H-aldosterone.

progesterone receptor, sequence (P06401 whole entry, species assumed): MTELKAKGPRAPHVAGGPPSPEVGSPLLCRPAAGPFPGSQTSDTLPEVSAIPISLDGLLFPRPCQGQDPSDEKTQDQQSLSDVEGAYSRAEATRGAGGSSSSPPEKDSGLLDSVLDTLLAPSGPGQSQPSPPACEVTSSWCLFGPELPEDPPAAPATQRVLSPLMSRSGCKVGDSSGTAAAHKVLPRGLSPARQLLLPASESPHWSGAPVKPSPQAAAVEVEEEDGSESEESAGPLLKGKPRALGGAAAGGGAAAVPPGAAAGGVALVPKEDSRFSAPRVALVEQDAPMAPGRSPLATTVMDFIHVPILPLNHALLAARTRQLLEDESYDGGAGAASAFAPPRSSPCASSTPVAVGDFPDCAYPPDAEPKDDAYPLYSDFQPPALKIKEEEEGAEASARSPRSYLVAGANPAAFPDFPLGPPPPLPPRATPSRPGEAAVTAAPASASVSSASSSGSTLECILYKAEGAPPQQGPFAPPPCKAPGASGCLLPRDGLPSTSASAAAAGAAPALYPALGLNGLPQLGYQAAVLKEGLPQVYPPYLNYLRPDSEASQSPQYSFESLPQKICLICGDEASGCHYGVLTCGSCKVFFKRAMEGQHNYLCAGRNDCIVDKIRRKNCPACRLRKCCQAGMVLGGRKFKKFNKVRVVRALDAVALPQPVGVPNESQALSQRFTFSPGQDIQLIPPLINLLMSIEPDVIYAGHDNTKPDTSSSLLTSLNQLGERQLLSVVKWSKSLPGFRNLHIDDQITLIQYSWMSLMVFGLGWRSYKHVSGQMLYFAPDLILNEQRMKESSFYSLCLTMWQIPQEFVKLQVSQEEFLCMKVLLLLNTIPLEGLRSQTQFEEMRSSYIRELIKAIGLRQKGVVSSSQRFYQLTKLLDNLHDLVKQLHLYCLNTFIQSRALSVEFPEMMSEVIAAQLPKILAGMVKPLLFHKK

Compound	Progesterone receptor (PR) Competition factor (progesterone receptor)	CF PR/CF MR (progesterone receptor)	IC50 (progesterone receptor) [nM]	EC50 (androgen receptor [1]) [nM]	IC50 (androgen receptor [1]) [nM]	Androgen receptor Agonism efficacy (androgen receptor [1]) [%]	Androgen receptor Antagonism efficacy (androgen receptor [1]) [%]	IC50 (androgen receptor [2]) [nM]	Androgen receptor Competition factor (androgen receptor [2])	EC50 [3] [nM]	Progesterone receptor Agonism efficacy [3] [%]	Mineralocorticoid receptor Antagonism IC50 [4]	Mineralocorticoid receptor (MR) Competition factor [5]	Progesterone receptor Agonism EC50 [3]	Mineralocorticoid receptor Antagonism efficacy [4] [%]	IC50 [4] [nM]
CC[C@]12CC[C@H]3[C@@H](CCC4=C(Cl)C(=O)CC[C@@H]43)[C@@H]1CC[C@@]21C=CC(=O)O1 [Example 13, 4-Chloro-17β-hydroxy-18-methyl-19-nor-17α-pregna-4,20(Z)-dien-3-one-21-carboxylic acid γ-lactone]	28.06	0.60	750	57	12	33.71	44.18	170	8.3	1000	25.3	inactive	47.0	–	–	–
C[C@]12CC[C@H]3[C@@H]([C@H](C4CC4)CC4=CC(=O)CC[C@@H]43)[C@@H]1CC[C@@]21C=CC(=O)O1 (stereo in doubt) [Example 12A, 17β-Hydroxy-7α-cyclopropyl-19-nor-17α-pregna-4,20(Z)-dien-3-one-21-carboxylic acid γ-lactone]	109.04	9.01	2600	67	48	21.13	69.75	300	9.6	–	–	–	12.1	inactive	116.9	110
C[C@]12CCC(=O)C=C1[C@@H]1C[C@@H]1[C@H]1[C@@H]3[C@@H]4C[C@@H]4[C@@]4(CCC(=O)O4)[C@@]3(C)CC[C@@H]12 [A, 6β,7β;15γ,16β-dimethylene-3-oxo-17-pregn-4-ene-21,17β-carbolactone, reference compound]	–	–	–	–	–	–	–	–	–	–	72.2	–	–	–	64.1	–
C[C@]12CC[C@H]3[C@@H](CCC4=CC(=O)CC[C@@H]43)[C@@H]1CC1(CC1)[C@@]21C=CC(=O)O1 (stereo in doubt) [Example 5, 16,16-(1,2-Ethanediyl)-17β-hydroxy-19-nor-17α-pregna-4,20(Z)-dien-3-one-21-carboxylic acid γ-lactone]	3.31	0.26	110	140	1000	37.8	5	310	33.8	13	46.9	–	12.7	–	73.1	840
C[C@]12CC[C@H]3[C@@H](CCC4=C(Cl)C(=O)CC[C@@H]43)[C@@H]1CC[C@@]21C=CC(=O)O1 [Example 14, 4-Chloro-17β-hydroxy-19-nor-17α-pregna-4,20(Z)-dien-3-one-21-carboxylic acid γ-lactone]	53.06	1.36	1200	100	70.5	22.74	63.26	140	7.5	–	–	–	39.0	inactive	21.6	700
C[C@]12CC[C@H]3[C@@H](C=CC4=CC(=O)CC[C@@H]43)[C@@H]1CC[C@@]21C=CC(=O)O1 (stereo in doubt) [Example 1, 17β-Hydroxy-19-nor-17α-pregna-4,6,20(Z)-trien-3-one-21-carboxylic acid γ-lactone]	–	–	–	130	1000	44.27	5	10000	1000.0	–	–	–	33.0	–	93.2	870
CC[C@]12CC[C@H]3[C@@H](C=CC4=CC(=O)CC[C@@H]43)[C@@H]1CC[C@@]21C=CC(=O)O1 (stereo in doubt) [Example 7, 17β-Hydroxy-18-methyl-19-nor-17α-pregna-4,6,20(Z)-trien-3-one-21-carboxylic acid γ-lactone]	6.15	1.58	110	1000	100	5	59.23	2600	112.0	–	–	–	3.9	inactive	94.2	100
C[C@@H]1CC2=CC(=O)CC[C@@H]2[C@H]2CC[C@@]3(C)[C@@H](CC[C@@]34C=CC(=O)O4)[C@@H]21 (stereo in doubt) [Example 2A, 17β-Hydroxy-7α-methyl-19-nor-17α-pregna-4,20(Z)-dien-3-one-21-carboxylic acid γ-lactone]	8.33	–	310	–	–	–	–	–	–	220	44.4	–	7.6	–	129.8	180
CC[C@]12CC[C@H]3[C@@H](C[C@@H](CO)C4=CC(=O)CC[C@@H]43)[C@@H]1CC[C@@]21C=CC(=O)O1 [Example 15]	–	–	–	1000	1000	5	5	–	–	–	–	inactive	–	inactive	–	–
CC[C@]12CC[C@H]3[C@@H](CC4(CC4)C4=CC(=O)CC[C@@H]43)[C@@H]1CC[C@@]21C=CC(=O)O1 [Example 16, 6,6-(1,2-Ethanediyl)-17β-hydroxy-18-methyl-19-nor-17α-pregna-4,20(Z)-dien-3-one-21-carboxylic acid γ-lactone]	–	–	–	1.1	1000	91.19	5	–	–	–	–	–	–	–	107.9	75
CC[C@]12CC[C@H]3[C@@H](CCC4=CC(=O)CC[C@@H]43)[C@@H]1CC[C@@]21C=CC(=O)O1 (stereo in doubt) [Example 6, 17β-Hydroxy-18-methyl-19-nor-17α-pregna-4,20(Z)-dien-3-one-21-carboxylic acid γ-lactone]	3.07	1.28	45	53	19	59.8	33.8	28	3.4	–	–	–	2.4	–	109.6	12
C[C@]12CC[C@H]3[C@@H](C[C@@H](CO)C4=CC(=O)CC[C@@H]43)[C@@H]1CC[C@@]21C=CC(=O)O1 [Example 17, 17β-Hydroxy-6β-hydroxymethylene-19-nor-17α-pregna-4,20(Z)-dien-3-one-21-carboxylic acid γ-lactone]	–	–	–	–	–	–	–	–	–	–	–	inactive	–	inactive	–	–
C[C@]12CC[C@H]3[C@@H](CC4(CC4)C4=CC(=O)CC[C@@H]43)[C@@H]1CC[C@@]21C=CC(=O)O1 [Example 18, 6,6-(1,2-Ethanediyl)-17β-hydroxy-19-nor-17α-pregna-4,20(Z)-dien-3-one-21-carboxylic acid γ-lactone]	–	–	–	3.7	1000	87.91	5	–	–	–	–	–	–	–	89.3	520

Reference: US8937058B2, “17-hydroxy-19-nor-21-carboxylic acid-steroid γ-lactone derivative, use thereof, and medicament containing the derivative” (priority 2007, dated 2015)
